Consider 5 compounds from US20260317319A1, “NOVEL ERGOLINES AND METHODS OF TREATING MOOD DISORDERS” (Gilgamesh Pharma Inc., priority 2023, published 2026).

Like-named read-outs stand apart in the source and are kept apart here. Some results are limits rather than exact numbers.

In general, EC50 refers to the concentration needed to bring the measured effect to its halfway point. Broadly, the Ki is a measure of affinity in units of concentration, obtained from inhibition or displacement. A higher Ki goes with a looser hold on the target.

In one series the target is T1, 5-HT1A receptor (Homo sapiens, UniProt P08908).
T1 construct: expressed in transfected cells; host or cells: CHO cells, stably transfected
T1 sequence (P08908 1-422): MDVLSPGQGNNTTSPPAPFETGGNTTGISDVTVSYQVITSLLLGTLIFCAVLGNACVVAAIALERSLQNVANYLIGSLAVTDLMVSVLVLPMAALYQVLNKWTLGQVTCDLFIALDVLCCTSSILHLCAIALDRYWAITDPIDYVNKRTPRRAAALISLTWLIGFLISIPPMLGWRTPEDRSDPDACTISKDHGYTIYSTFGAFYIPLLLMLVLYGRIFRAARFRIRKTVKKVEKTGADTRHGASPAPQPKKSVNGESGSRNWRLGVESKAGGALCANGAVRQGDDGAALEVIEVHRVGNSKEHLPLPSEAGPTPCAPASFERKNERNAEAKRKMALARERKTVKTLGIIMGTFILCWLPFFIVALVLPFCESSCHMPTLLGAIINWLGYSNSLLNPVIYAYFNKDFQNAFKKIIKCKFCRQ
The series can be described thus: cell-based. To be noted: agonist, Ca2+ flux; for Emax: CHO, CHO cells with Gα15, max dose, read-out: 5-HT1A % Act @ Max Dose; for EC50: CHO cells with Gα15. Put shortly: (§1)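 FLIPR Tetra fluorescence read-out of calcium flux after compound addition. Receptor-expressing stable lines were used (HEK293 for 2A/2B; CHO with Gα15 for 1A), dye-loaded with Fluo-4 Direct and 2.5 mM final probenecid, 50 min at 37 °C.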

Series [1] is described as follows: in vitro. In kind it is in vitro ADME, mouse. To be noted: MLM (male CD-1) 0.50 mg/mL, NADPH 1 mM, 1 μM compound, pH 7.4, 37° C., 60 min; for microsomal CLint / half-life: mouse, microsomes; for microsomal CLint: read-out: Intrinsic clearance (Clint); for half-life: read-out: half-life (t1/2). The source says:
MLM Stability Pooled MLM from male CD-1 mice (BIOIVT M00501) were used.

Series [2] in a line: in vitro. In kind it is in vitro ADME, human. The note with it: HLM 0.50 mg/mL, NADPH 1 mM, 1 μM compound, pH 7.4, 37° C., 60 min; for microsomal CLint / half-life: human, microsomes; for microsomal CLint: read-out: Intrinsic clearance (Clint); for half-life: read-out: half-life (t1/2).
Series [3] deals with T2, 5-HT2A receptor (Homo sapiens, UniProt P28223). The series can be described thus: biochemical. In kind it is binding. The arrangement: expressed in transfected cells; host or cells: HEK293, stably transfected. To be noted: [3H]ketanserin 1 nM; HEK293 stable cell line; 1 h, 25 °C. Put shortly:
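Binding affinity comes from a [^3H]ketanserin radioligand assay run under literature-adapted conditions.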

In the next series the target is T3, 5-HT2B receptor (Homo sapiens, UniProt P41595).
T3 construct: expressed in transfected cells; host or cells: HEK293, stably transfected
T3 sequence (P41595 whole entry): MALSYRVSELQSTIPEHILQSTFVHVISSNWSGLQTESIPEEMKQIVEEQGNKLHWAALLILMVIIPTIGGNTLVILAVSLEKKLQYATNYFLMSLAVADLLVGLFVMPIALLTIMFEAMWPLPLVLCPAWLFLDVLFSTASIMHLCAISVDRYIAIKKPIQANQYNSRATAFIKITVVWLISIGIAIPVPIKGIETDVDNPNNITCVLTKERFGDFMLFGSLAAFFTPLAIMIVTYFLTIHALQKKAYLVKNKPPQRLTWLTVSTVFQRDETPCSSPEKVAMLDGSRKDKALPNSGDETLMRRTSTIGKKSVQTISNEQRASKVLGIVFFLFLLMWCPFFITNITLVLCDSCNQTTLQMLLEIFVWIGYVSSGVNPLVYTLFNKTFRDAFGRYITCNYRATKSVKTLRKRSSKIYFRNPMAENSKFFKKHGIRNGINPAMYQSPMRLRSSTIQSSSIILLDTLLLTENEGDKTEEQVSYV
The series can be described thus: cell-based. In kind it is cell-based. The note with it: Ca2+ flux; for Emax: HEK293, agonist, HEK293, max dose, read-out: 5-HT2B % Act @ Max Dose; for EC50: agonist, HEK293. Put shortly:
as §1
For orientation: Calcium assays in cells follow changes in intracellular calcium, usually with a dye or a luminescent sensor.

The nature of series [4]: in vitro. In kind it is in vitro ADME, rat. The note with it: RLM (male Sprague-Dawley) 0.50 mg/mL, NADPH 1 mM, 1 μM compound, pH 7.4, 37° C., 60 min; for microsomal CLint / half-life: rat, microsomes; for microsomal CLint: read-out: Intrinsic clearance (Clint); for half-life: read-out: half-life (t1/2). The source says:
RLM Stability Pooled RLM from male Sprague-Dawley rats (Xenotech R1000) were used.

The target in series [5] is T4, 5-HT2C receptor (Homo sapiens, UniProt P28335).
T4 sequence (P28335 33-458): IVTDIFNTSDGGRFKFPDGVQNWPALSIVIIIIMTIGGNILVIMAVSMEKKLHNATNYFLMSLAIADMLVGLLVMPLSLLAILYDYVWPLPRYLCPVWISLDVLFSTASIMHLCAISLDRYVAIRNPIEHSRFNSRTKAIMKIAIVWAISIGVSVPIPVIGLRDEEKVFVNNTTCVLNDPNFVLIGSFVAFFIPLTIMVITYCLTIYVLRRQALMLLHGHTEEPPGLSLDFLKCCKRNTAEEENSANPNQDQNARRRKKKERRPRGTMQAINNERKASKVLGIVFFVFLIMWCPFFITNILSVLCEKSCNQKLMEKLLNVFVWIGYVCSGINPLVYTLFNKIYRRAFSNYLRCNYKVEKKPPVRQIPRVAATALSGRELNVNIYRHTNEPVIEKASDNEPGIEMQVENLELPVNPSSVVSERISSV
The series can be described thus: cell-based. To be noted: agonist, Ca2+ flux, Eurofins DiscoverX protocol; for Emax: max dose, read-out: 5-HT2C % Act @ Max Dose; for EC50: read-out: 5-HT2C EC50.

Series [6] deals with T2, 5-HT2A receptor. The series can be described thus: cell-based. In kind it is cell-based. On the set-up: expressed in transfected cells; host or cells: HEK293, stably transfected. To be noted: Ca2+ flux; for Emax: HEK293, agonist, HEK293, max dose, read-out: 5-HT2A % Act @ Max Dose; for EC50: agonist, HEK293. The method in brief:
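Receptor agonism was assessed as intracellular calcium mobilization in stably transfected cells, with CHO cells additionally carrying Gα15 for the 5-HT1A readout. Calcium was monitored with Fluo-4 Direct dye.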

Series [7] addresses T2, 5-HT2A receptor. The series can be described thus: cell-based. In kind it is cell-based. The note with it: agonist, beta-arrestin recruitment, max dose; read-out: 5-HT2A Arrestin % Act @ Max Dose. The method in brief: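 PathHunter β-arrestin recruitment (enzyme fragment complementation): 5-HT2A fused to ProLink donor in cells co-expressing β-arrestin–β-galactosidase acceptor, seeded and held at 37° C before testing. Chemiluminescent read-out; agonist % activity = (sample RLU − vehicle)/(max control ligand − vehicle) × 100.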
A general note: Activated receptors often draw arrestin, which recruitment assays turn into a signal.

The target in series [8] is T4, 5-HT2C receptor. The series can be described thus: Ca2+ flux functional assay at 5-HT2C (WuXi 5-HT2C protocol). On the set-up: expressed in transfected cells. In kind it is cell-based. The procedure:
Disclosed compounds were tested for agonist activity at several serotonin receptor subtypes (5-HT2A, […], 5-HT2C, and 5-HT1A) using Ca^2+ flux functional assays and the 5-HT1B receptor using a cAMP accumulation assay, with the results summarized in Table 4. […] Potent agonist activity was also observed at the other serotonin receptors tested, although the selectivity profile among the receptors varied across compounds. […] However, at the same time, the N-propyl compounds were more efficacious agonists at 5-HT2B than the corresponding N-methyl compounds. The selectivity of disclosed compounds for 5-HT2A over 5-HT2C and 5-HT1A was less predictable and varied widely across compounds. […] An azetidinyl amide substituent tended to increase potency at 5-HT1A relative to 5-HT2A.
Functional Assays at 5-HT2A, 5-HT2B, and 5-HT1A. Agonist activity at 5-HT2A, 5-HT2B, 5HT2C and 5-HT1A receptors was determined using a FLIPR Ca^2+ flux assay at WuXi AppTec (Hong Kong) Limited according to their standard protocols. Briefly, stably transfected cells expressing the receptor of interest and Gα15 in the case of 5-HT1A (HEK293 for 5-HT2A and 5-HT2B; CHO cells for 5-HT1A) were grown and plated in a 384 well plate and incubated at 37° C. and 5% CO2 overnight. A solution of 250 mM probenecid in 1 mL FLIPR assay buffer was prepared fresh. This was combined with a fluorescent dye (Fluo-4 Direct™) to make a final assay concentration of 2.5 mM. Compounds were diluted 1:3.16 for 10 points and 750 nL was added to a 384 well compound plate using ECHO along with 30 μL assay buffer. The fluorescent dye was then added to the assay plate along with assay buffer to a final volume of 40 μL. The cell plate was incubated for 50 min at 37° C. and 5% CO2 and placed into the FLIPR Tetra along with the compound plate. 10 μL of references and compounds were then transferred from the compound plate into the cell plate and the fluorescent signal was read.

T2 sequence (P28223 whole entry): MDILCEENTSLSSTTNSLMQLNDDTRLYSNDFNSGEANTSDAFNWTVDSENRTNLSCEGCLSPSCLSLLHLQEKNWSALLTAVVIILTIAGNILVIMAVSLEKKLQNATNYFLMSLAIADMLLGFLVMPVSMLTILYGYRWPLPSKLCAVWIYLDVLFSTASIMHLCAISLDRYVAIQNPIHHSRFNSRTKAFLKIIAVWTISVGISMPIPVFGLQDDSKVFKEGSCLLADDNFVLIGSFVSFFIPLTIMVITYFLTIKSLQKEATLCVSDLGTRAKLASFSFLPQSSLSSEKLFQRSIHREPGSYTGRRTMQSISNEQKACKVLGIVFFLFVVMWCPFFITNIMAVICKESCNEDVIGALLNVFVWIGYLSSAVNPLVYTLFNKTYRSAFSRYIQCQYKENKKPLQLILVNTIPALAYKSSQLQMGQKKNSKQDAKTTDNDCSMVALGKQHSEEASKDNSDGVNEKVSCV

For the compound `CCN(CC)C(=O)[C@@H]1C=C2c3cccc4[nH]cc(c34)C[C@H]2N(Cc2ccc(F)c(F)c2)C1` [Compound 54, (6aR,9R)-7-(3,4-difluorobenzyl)-N,N-diethyl-4,6,6a,7,8,9-hexahydroindolo[4,3-fg]quinoline-9-carboxamide], the Emax on 5-HT1A receptor came to 51%; at 5-HT2B receptor, 0.91%; at 5-HT2C receptor [5], 8.36%; at 5-HT2A receptor [6], 59.2%. In addition, the EC50 at 5-HT1A receptor was > 100000 nM; on 5-HT2B receptor, > 10000 nM; at 5-HT2C receptor [5] it was > 10000 nM; on 5-HT2A receptor [6] it was 1870 nM. The microsomal CLint in the series “in vitro [1]” came out at 242 µL/min/mg; in the series “in vitro [2]”, 73.9 µL/min/mg; in the series “in vitro [4]” it was 110 µL/min/mg. Besides, the half-life in the series “in vitro [1]” is 5.7 min; in the series “in vitro [2]”, 18.7 min; in the series “in vitro [4]”, 12.6 min. This compound returned a Ki on 5-HT2A receptor [3] of 5.4 nM.
Turning to `CCN(CC)C(=O)[C@@H]1C=C2c3cccc4[nH]cc(c34)C[C@H]2N(Cc2ccc(C)cc2)C1` [Compound 97, (6aR,9R)—N,N-diethyl-7-(4-methylbenzyl)-4,6,6a,7,8,9-hexahydroindolo[4,3-fg]quinoline-9-carboxamide], at 5-HT1A receptor, the Emax worked out at 84.5%. For the same compound, the EC50 at 5-HT1A receptor is > 100000 nM; on 5-HT2B receptor, 16.6 nM; on 5-HT2C receptor [5] it was 4.06 nM; at 5-HT2A receptor [6] it was 23.1 nM. Besides, the microsomal CLint in “in vitro [1]” was found to be 511 µL/min/mg; in “in vitro [2]” it was 63.5 µL/min/mg; in the series “in vitro [4]” it was 532 µL/min/mg. Besides, the half-life was 2.7 min in the series “in vitro [1]”, 21.8 min in the series “in vitro [2]” and 2.6 min in the series “in vitro [4]”. This compound also gave a Ki on 5-HT2A receptor [3] of 23.1 nM.
As to `CCN(CC)C(=O)[C@@H]1C=C2c3cccc4[nH]cc(c34)C[C@H]2N(Cc2cccc(F)c2)C1` [Compound 52, (6aR,9R)—N,N-diethyl-7-(3-fluorobenzyl)-4,6,6a,7,8,9-hexahydroindolo[4,3-fg]quinoline-9-carboxamide], the Emax at 5-HT1A receptor amounted to 93%; at 5-HT2B receptor, 4.22%; at 5-HT2C receptor [5], 14.5%; on 5-HT2A receptor [6], 81.7%. The concentration for a half-maximal effect (EC50) at 5-HT1A receptor was 7990 nM; at 5-HT2B receptor, > 10000 nM; on 5-HT2C receptor [5], > 10000 nM; at 5-HT2A receptor [6], 469 nM. In addition, the microsomal CLint in “in vitro [1]” is 338 µL/min/mg; in “in vitro [2]” it was 77.9 µL/min/mg; in “in vitro [4]” it was 302 µL/min/mg. Moreover, the half-life came to 4.1 min in “in vitro [1]”, 17.8 min in “in vitro [2]” and 4.6 min in the series “in vitro [4]”. This compound displayed a Ki at 5-HT2A receptor [3] of 5.39 nM.
For `CCN(CC)C(=O)[C@H]1C=C2c3cccc4[nH]cc(c34)C[C@H]2N(CCCF)C1` [Compound 2a, (6aR,9S)—N,N-diethyl-7-(3-fluoropropyl)-4,6,6a,7,8,9-hexahydroindolo[4,3-fg]quinoline-9-carboxamide], the Emax turned out to be 96.8% at 5-HT1A receptor; 83.3% at 5-HT2A receptor [7]; 40.1% on 5-HT2B receptor; 119% at 5-HT2C receptor [5]; 90.3% on 5-HT2A receptor [6]. Besides, the results for the “half-life (t1/2)” value in the series “in vitro [1]”, in “in vitro [2]” and in “in vitro [4]” were 1.776 min, 17.018 min and 9.673 min, respectively.
For `CCN(CC)C(=O)[C@@H]1C=C2c3cccc4[nH]cc(c34)C[C@H]2N(Cc2ccccc2C)C1` [Compound 99, (6aR,9R)—N,N-diethyl-7-(2-methylbenzyl)-4,6,6a,7,8,9-hexahydroindolo[4,3-fg]quinoline-9-carboxamide], the Emax on 5-HT1A receptor came out at 69.9%; at 5-HT2C receptor [8] (agonist, tested using WuXi 5-HT2C protocol, max dose, read-out: 5-HT2C % Act @ Max Dose (* WuXi protocol)), 0.56%; at 5-HT2B receptor, 1.41%; at 5-HT2A receptor [6], 73.6%. In addition, the EC50 was 19600 nM at 5-HT1A receptor, > 10000 nM on 5-HT2C receptor [8], > 10000 nM on 5-HT2B receptor and 1210 nM at 5-HT2A receptor [6]. Moreover, the figures for the microsomal CLint in “in vitro [1]”, in “in vitro [2]” and in “in vitro [4]” were 426 µL/min/mg, 86.4 µL/min/mg and 174 µL/min/mg, respectively. Further, the results for the half-life in the series “in vitro [1]”, in the series “in vitro [2]” and in the series “in vitro [4]” were 3.3 min, 16 min and 8 min, respectively. At 5-HT2A receptor [3], this compound gave a Ki of 9.22 nM.
